Patent publication EP2070529B1, “Medical use of 3-(2,2,2-trimethylhydrazinium) propionate orotate” (Grindeks, a joint stock company, priority 2007, dated 2009)
Where “and” joins values, the source holds several entries; their conditions need not be identical. Equal entries are not always repeated. Marks after values point to notes of the source that are not given here.

How the values were obtained:
rats = experiment: Acute arrhythmia induced by calcium chloride, lethality; format: in vivo, Wistar rats; details: deaths/rats per group (8 rats), p.o. 14 days (Meldonium dihydrate 120 mg/kg, Meldonium orotate 204 mg/kg), last dose 24 h before, CaCl2 185 mg/kg, ECG until 10 minutes after
Method: Experiment was conducted on adult male Wistar rats. During the experiment, the animals were kept in Standard crates in groups of 8. The feed was a standardized diet R3 (LABFOR, Lactamin AB, Sweden). The room temperature was kept at 21-23°C, relative humidity at 65±10%, 12 hour light/darkness cycle. The experimental procedures were carried out in accordance with the guidelines of the European Community and local laws and policies and were approved by Latvian Animal Protection Ethical Committee, the Food and Veterinary Service.
An experimental acute arrhythmia was caused by introducing in rats solution of Calcium chloride.
Rats weighing 240-250 g randomized were divided into 3 groups, where in all groups there were 8 rats. During all 14 days rats got experimental preparations: Meldonium dihydrate or Meldonium orotate. The first group of 8 rats received drinking water (control group), the second group of 8 rats received Meldonium dihydrate (120 mg/kg p.o.) and the third group of 8 rats received Meldonium orotate (204 mg/kg p.o.). The last dose of experimental preparations animals got 24 h before the experiment. […] When narcosis started to influence to rat, there was cannulated left femoral vena for introducing of 10 % CaCl2 and after that there was connected ECG's recoding device (ADlnstrument PowerLab systems) and read ECG from the II lead. […]

isolated rat heart = experiment: Isolated rat heart infarction model; format: in vivo, Wistar rats; details: by mouth for 14 days (Meldonium dihydrate 120 mg/kg, orotic acid 100mg/kg, Meldonium orotate 200 mg/kg), 60 minutes occlusion, 150 minute reperfusion
Method: Experiments were conducted on adult male Wistar rats with initial weight of 280-310g. During the experiment, the animals were kept in Standard crates in groups of 8. The feed was a standardized diet R70 (LABFOR, Lactamin AB, Sweden). The room temperature was kept at 21-23°C, relative humidity at 65±10%, 12 hour light/darkness cycle.
Rats weighing approximately 300 g were randomly divided in 4 groups. The first group received saline by mouth (control group), the second group 120 mg/kg Meldonium dihydrate, the third orotic acid 100mg/kg and the fourth group 200 mg/kg Meldonium orotate by mouth for 14 days.
Rats were anesthetized with sodium pentobarbital (60 mg/kg) and heparin (1 IU/g) was administrated concomitantly. Hearts were excised and retrogradely perfused via aorta at a constant pressure of 50 mm Hg, with oxygenated Krebs-Henseleit buffer ( content in mmol/L: NaCl 118, Ca Cl2 2.52, MgCl2 1.64, NaHCO3 24.88, KH2PO4 1.18, glucose 10.0, EDTA 0.05) pH 7.3-7.5 at 37°C.
A 5-0 polypropylene suture (Surgipro II, Syneture) was passed under the left anterior descending coronary artery and threaded through a small plastic tube to permit reversible occlusion of the coronart artery. Coronary flow was measured using an ultrasound flow detector (HSE) and PowerLab 8/30 system from ADlnstruments.
Hearts were adapted for 20 minutes and occlusion was performed for 60 minutes by constricting threads through a plastic tube.
At the end of the 150 minute reperfusion, the left anterior descending coronary artery was relegated and the risk zone was delineated with 0.1 % methylene blue solution in Krebs-Henseleit buffer infused via the aorta root. Hearts were sectioned transversely from the apex to the base of 2 mm thickness and incubated in 1 % triphenyl-tetrazolium chloride in phosphate buffer (pH 7.4, 37°C) for 10 minutes to stain viable tissue red and necrotic tissue white. […] Computerized planemetric analysis of photographs was performed using Image-Pro Plus 4.5.1 software to determine the area at risk (AR) and area of necrosis (AN) expressed as percentage of the left ventricle (LV). […]

| SMILES | Fatal outcome (rats; dihydrate) | Infarct size, % of control (isolated rat heart; IS = AN/AR x 100, dihydrate) | Fatal outcome (rats) | Infarct size, % of control (isolated rat heart; IS = AN/AR x 100) |
| --- | --- | --- | --- | --- |
| C[N+](C)(C)NCCC(=O)[O-] [Meldonium dihydrate, 3-(2,2,2-Trimethylhydrazinium) propionate dihydrate] | 2/8 | 76.9±5.9 % of control | – | – |
| C[N+](C)(C)NCCC(=O)[O-] [Meldonium orotate, 3-(2,2,2-trimethylhydrazinium) propionate orotate] | – | – | no lethal cases and 0/8 | 49.1±6.1***^,#,& % of control |
| O=C(O)c1cc(=O)[nH]c(=O)[nH]1 [Orotic acid] | – | – | – | 75.0±7.7 % of control |
